# Measurements reported in patent US5385842A, “Anthraquinones as inhibitors of sulfide production from sulfate-reducing bacteria” (E. I. Du Pont de Nemours and Company, priority 1993, dated 1995).
# Experiments:
# [1] = system: Desulfovibrio gigas; test: Sulfide production by resting cells of D. gigas; assay type: cell-based
# Experimental: Experiments in this example were carried out using resting cells of Desulfovibrio gigas rather than growing cells as was the case for the autoanalyzer system employing the Desulfovibrio desulfuricans G100A strain. […] Thus the experiment examined a different organism, different test system, and a different physiological state for the phenomenon of anthraquinone inhibition of sulfide production by Desulfovibrio sp. Active compounds, as determined by the autoanalyzer, were evaluated in comparison with four additional compounds not evaluated in the autoanalyzer.
# 500 ml cultures of Desulfovibrio gigas were grown on standard BTZ-3 medium as previously described in Example 1 with 30 mM sodium lactate, 30 mM sodium sulfate and 30 mM sodium fumarate. The culture was harvested after 24 h of growth at 31° C. by centrifugation at 8000 rpm in a GSA Sorvall rotor for 20 minutes. The cell pellet was resuspended in 30 ml of incubation assay mixture of the following composition: 50 mM HEPES buffer pH 7 buffer, 2.5 mM sodium lactate, 2.5 mM sodium sulfate. This suspension was centrifuged again at 10,000 rpm in a Sorvall SS-34 rotor for 5 minutes. The resulting cell pellet was resuspended in 5 ml of incubation assay buffer. Cell densities were generally near 10e10 cells/mi.
# The samples were assayed for production in the presence of anthraquinones. 200 ul of the cell suspension was added to 1.2 ml of incubation assay mixture in a 5 ml capacity test tube. The tube was gassed with hydrogen gas for 20 minutes then the anthraquinones were added as ethanolic solutions, the tubes were then gassed with hydrogen again for 5 minutes. The reaction mixtures were then incubated for 3 hours at 31° C. The reactions were stopped by the addition of 200 ul of 1N sodium hydroxide. After 20 minutes the alkaline mixtures were centrifuged in a table top microfuge for 4 minutes at 14,000 rpm to remove cells and cell debris. The supernatant was then assayed for sulfide using the ferric chloride-DPD reagent system as described by Siegel et al., Anal. Blochem., 11:126-132, 1965, herein incorporated by reference.
# [2] = system: D. desulfuricans #ATCC27774; test: Respiration rate (hydrogen gas uptake) with sulfate as electron acceptor; conditions: Desulfovibrio desulfuricans, ATCC27774, 4 h, pH 7, read-out: Gas Uptake (as percent of control)
# [3] = system: D. desulfuricans strain G100A; test: Growth by pyruvate fermentation in the absence of sulfate; assay type: cell-based
# Experimental: D. desulfuricans strain G100A was grown using pyruvate fermentation in the absence of sulfate.
# [4] = system: Thiobacillus denitrificans; test: Growth of Thiobacillus denitrificans; assay type: cell-based
# Experimental: Thiobacillus denitrificans was grown on BTZ-3 medium as defined in Example 1 (supplemented with reducing agent) and with 30 mM sodium nitrate plus 30 mM sodium thiosulfate. Cultures were anaerobic under a nitrogen atmosphere. Thus growth conditions mimicked those for the sulfate-reducingbacteria as closely as possible. […]
structure (smiles),measurement,setting,value
"O=C1c2cccc(O)c2C(=O)c2c(O)cccc21 [1,8-Dihydroxyanthraquinone]",activity at 0.1 ppm,"[1]; Desulfovibrio, 0.1 ppm, 3 hours at 31° C.",101%
same,activity at 0.5 ppm,"[1]; Desulfovibrio, 0.5 ppm, 3 hours at 31° C.",51%
same,activity at 2 ppm,"[1]; Desulfovibrio, 2 ppm, 3 hours at 31° C.",4%
same,activity at 5 ppm,"[1]; Desulfovibrio, 5 ppm, 3 hours at 31° C.",2.3%
same,inhibition of sulfide production (in words),[1]; resting cells,inhibitory properties
same,activity at 0.6 ppm,[2],66%
same,activity at 1.5 ppm,[2],45%
same,activity at 3 ppm,[2],30%
same,Optical Density @ 660 nm,"[3]; 0 h, before addition of 3 ppm at 6.5 h, control .11",.1
same,effect on fermentative growth (in words),[3]; 3 ppm,did not affect fermentative growth
same,Optical Density @ 660 nm,"[3]; 2 h, before addition of 3 ppm at 6.5 h, control .12",.12
same,Optical Density @ 660 nm,"[3]; 3.5 h, before addition of 3 ppm at 6.5 h, control .14",.14
same,Optical Density @ 660 nm,"[3]; 6.5 h, time of addition of 3 ppm, control .15",.16
same,Optical Density @ 660 nm,"[3]; 8.5 h, 3 ppm added at 6.5 h, control .18",.16
same,Optical Density @ 660 nm,"[3]; 10.7 h, 3 ppm added at 6.5 h, control .19",.17
same,Optical Density @ 660 nm,"[3]; 25 h, 3 ppm added at 6.5 h, control .26",.22
same,Optical Density @ 660 nm,"[3]; 32 h, 3 ppm added at 6.5 h, control .37",.34
same,Optical Density @ 660 nm,"[3]; 45 h, 3 ppm added at 6.5 h, control .46",.45
same,Optical Density @ 660 nm,"[4]; 0 h of growth, before addition of 3 ppm at 19 h, control .02",.0
same,effect on growth (in words),[4]; 3 ppm,no effect on the growth of T. denitrificans
same,Optical Density @ 660 nm,"[4]; 12 h of growth, before addition of 3 ppm at 19 h, control .06",.06
same,Optical Density @ 660 nm,"[4]; 15 h of growth, before addition of 3 ppm at 19 h, control .08",.08
same,Optical Density @ 660 nm,"[4]; 19 h of growth, time of addition of 3 ppm, control .09",.09
same,Optical Density @ 660 nm,"[4]; 34 h of growth, 3 ppm added at 19 h, control .22",.22
same,Optical Density @ 660 nm,"[4]; 36 h of growth, 3 ppm added at 19 h, control .29",.25
same,Optical Density @ 660 nm,"[4]; 38 h of growth, 3 ppm added at 19 h, control .32",.27
same,Optical Density @ 660 nm,"[4]; 43 h of growth, 3 ppm added at 19 h, control .40",.32
same,Optical Density @ 660 nm,"[4]; 55 h of growth, 3 ppm added at 19 h, control 1.5",1.5
